Where a name gives a salt, the structure may show the parent alone.
How the values were obtained:
[1] = target: T1, sRAGE binding to β-amyloid (Homo sapiens, UniProt Q15109); experiment: RAGE binding assay (ELISA), β-amyloid as the RAGE ligand; conditions: compounds tested in hydrochloride salt form, concentration at which 50% signal has been inhibited
T1 construct: extracellular domain can be isolated by proteolysis of RAGE to generate soluble RAGE (sRAGE) comprised of the V and C domains
Method: (§1) The following assay method may be used to identify compounds of Formula (I) or pharmaceutically acceptable salts thereof which are useful as inhibitors of binding of physiological RAGE ligands, such as S100b and β-amyloid, to RAGE.
(§2) S100b, β-amyloid, or CML (500 ng/100 μL/well) in 100 mM sodium bicarbonate/sodium carbonate buffer (pH 9.8) is loaded onto the wells of a NUNC Maxisorp flat bottom 96-well microtitre plate. The plate is incubated at 4° C. overnight. The wells are aspirated and treated with 50 mM imidazole buffer saline (pH 7.2) (with 5 mM CaCl2/MgCl2) containing 1% bovine serum albumin (BSA) (300 μL/well) for 1 h at RT. The wells are aspirated.
(§3) Test compounds are dissolved in nanopure water (concentration: 10-100 μM). DMSO may be used as co-solvent. 25 μL of test compound solution in 4% DMSO is added, along with 75 μL sRAGE (6 nM FAC) to each well and samples are incubated for 1 h at 37° C. The wells are washed several times with 155 mM NaCl pH 7.2 buffer saline and are soaked for several seconds between each wash.
(§4) Non-radioactive detection is performed by adding:
(§5) 10 μL Biotinylated goat F(ab′)2 Anti-mouse IgG. (8.0×10-4 mg/mL, FAC), 5 μL Alk-phos-Streptavidin (3×10-3 mg/mL FAC), 0.42 μL per 5 mL Monoclonal antibody for sRAGE (FAC 6.0×10-3 mg/mL) to 5 mL 50 mM imidazole buffer saline (pH 7.2) containing 0.2% bovine serum albumin and 5 mM CaCl2. The mixture is incubated for 30 minutes at RT.
(§6) 100 μL of complex is added to each well and incubation is allowed to proceed at rt for 1 h. Wells are washed several times with wash buffer and soaked several seconds between each wash. 100 μL 1 mg/mL (pNPP) in 1 M diethanolamine (pH adjusted to 9.8 with HCl) is added. Color is allowed to develop in the dark for 30 min to 1 h at rt. The reaction is quenched with 10 μL of stop solution (0.5-1.0 N NaOH in 50% ethanol) and the absorbance is measured spectrophotometrically with a microplate reader at 405 nm.
(§7) The IC50 (μM) value in the ELISA assay represents the concentration of compound at which 50% signal has been inhibited.

sRAGE binding to S100b = target: T2, sRAGE binding to S100b (Homo sapiens, UniProt Q15109); experiment: RAGE binding assay (ELISA), S100b as the RAGE ligand; conditions: compounds tested in hydrochloride salt form, concentration at which 50% signal has been inhibited
T2 construct: extracellular domain can be isolated by proteolysis of RAGE to generate soluble RAGE (sRAGE) comprised of the V and C domains
T2 sequence (Q15109 23-342 limits assumed): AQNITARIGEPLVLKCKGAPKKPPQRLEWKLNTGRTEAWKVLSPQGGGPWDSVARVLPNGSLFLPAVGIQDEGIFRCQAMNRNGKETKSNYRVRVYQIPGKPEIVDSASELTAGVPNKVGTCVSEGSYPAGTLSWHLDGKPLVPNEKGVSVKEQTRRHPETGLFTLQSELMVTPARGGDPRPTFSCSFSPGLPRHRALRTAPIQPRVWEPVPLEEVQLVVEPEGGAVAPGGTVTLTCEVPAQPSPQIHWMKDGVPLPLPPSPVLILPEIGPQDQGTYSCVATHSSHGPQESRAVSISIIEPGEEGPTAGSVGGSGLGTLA
Method: as §1, §2, §3, §4, §5, §6, §7

T1 sequence (Q15109 23-342 limits assumed): as above

Q: Which results are given for `CCCCc1nnc(OCC2CCN(C)C2)cc1-c1ccc(OCc2ccccc2)cc1` (stereo not drawn) [Example 10, 4-(4-Benzyloxy-phenyl)-3-butyl-6-(1-methyl-pyrrolidin-3-ylmethoxy)-pyridazine dihydrochloride]?
A: IC50 [1]: 1630 nM; IC50 (sRAGE binding to S100b): 1520 nM

Q: For `CCCCc1nnc(OCC2(O)CCN(C)CC2)cc1-c1ccc(OCc2ccccc2)cc1` [Example 11, 4-[5-(4-Benzyloxy-phenyl)-6-butyl-pyridazin-3-yloxymethyl]-1-methyl-piperidin-4-ol dihydrochloride], which IC50 [1] is on record?
A: 3230 nM

Q: What about the IC50 (sRAGE binding to S100b) of the same compound?
A: 5740 nM

Q: What does the source list for `CCCc1nnc(OC2CCN(C)CC2)cc1-c1ccc(OCc2ccccc2)cc1` [Example 12, 4-(4-Benzyloxy-phenyl)-6-(1-methyl-piperidin-4-yloxy)-3-propyl-pyridazine dihydrochloride]?
A: IC50 [1]: 1540 nM; IC50 (sRAGE binding to S100b): 1190 nM

Q: With `CN1CCC(Oc2cc(-c3ccc(OCc4ccccc4)cc3)c(C(F)(F)F)nn2)CC1` [Example 13, 4-(4-Benzyloxy-phenyl)-6-(1-methyl-piperidin-4-yloxy)-3-trifluoromethyl-pyridazine dihydrochloride] as the compound, how does the IC50 [1] read?
A: 2620 nM

Q: And the IC50 (sRAGE binding to S100b)?
A: 2570 nM

Q: For `CCCCc1nnc(OC2CCN(CCC(=O)OCC)CC2)cc1-c1ccc(OC2CCCCC2)cc1` [Example 15, 3-{4-[6-Butyl-5-(4-cyclohexyloxy-phenyl)-pyridazin-3-yloxy]-piperidin-1-yl}-propionic acid ethyl ester dihydrochloride], which IC50 [1] is on record?
A: 660 nM

Q: And the IC50 (sRAGE binding to S100b)?
A: 640 nM

Q: `CCCCc1nnc(OC2CCN(CCC(=O)N(C)C)CC2)cc1-c1ccc(OC2CCCCC2)cc1` [Example 16, 3-{4-[6-Butyl-5-(4-cyclohexyloxy-phenyl)-pyridazin-3-yloxy]-piperidin-1-yl}-N,N-dimethyl-propionamide dihydrochloride] was tested. Which IC50 [1] did it give?
A: 2070 nM

Q: And the IC50 (sRAGE binding to S100b)?
A: 2170 nM

Q: Which IC50 [1] does the source give for `CCCCc1nnc(OC2CCN(CCO)CC2)cc1-c1ccc(OC2CCCCC2)cc1` [Example 17, 2-{4-[6-Butyl-5-(4-cyclohexyloxy-phenyl)-pyridazin-3-yloxy]-piperidin-1-yl}-ethanol dihydrochloride] here?
A: 820 nM

Q: What about the IC50 (sRAGE binding to S100b) of the same compound?
A: 810 nM

Q: Which results are given for `CCCCc1nnc(OC2CCN(CCC3OCCCO3)CC2)cc1-c1ccc(OC2CCCCC2)cc1` [Example 18, 3-Butyl-4-(4-cyclohexyloxy-phenyl)-6-[1-(2-[1,3]dioxan-2-yl-ethyl)-piperidin-4-yloxy]-pyridazine dihydrochloride]?
A: IC50 [1]: 600 nM; IC50 (sRAGE binding to S100b): 830 nM

Q: How did the IC50 [1] turn out when `CCCCc1nnc(OC2CCN(C)CC2)cc1-c1ccc(OC2CCC(F)(F)CC2)cc1` [Example 19, 3-Butyl-4-[4-(4,4-difluoro-cyclohexyloxy)-phenyl]-6-(1-methyl-piperidin-4-yloxy)-pyridazine dihydrochloride] was run?
A: 870 nM

Q: What about the IC50 (sRAGE binding to S100b) of the same compound?
A: 640 nM

Q: Which IC50 [1] does the source give for `CCCCc1nnc(OC2CCN(CCc3nnc(C)o3)CC2)cc1-c1ccc(OC2CCCCC2)cc1` [Example 20, 3-Butyl-4-(4-cyclohexyloxy-phenyl)-6-{1-[2-(5-methyl-[1,3,4]oxadiazol-2-yl)-ethyl]-piperidin-4-yloxy}-pyridazine dihydrochloride] here?
A: 2230 nM

Q: And the IC50 (sRAGE binding to S100b)?
A: 1460 nM

Q: Which results are given for `CCCCc1nnc(OC2CCN(CCc3nnn(C)n3)CC2)cc1-c1ccc(OC2CCCCC2)cc1` [Example 21, 3-Butyl-4-(4-cyclohexyloxy-phenyl)-6-{1-[2-(2-methyl-2H-tetrazol-5-yl)-ethyl]-piperidin-4-yloxy}-pyridazine dihydrochloride]?
A: IC50 [1]: 1530 nM; IC50 (sRAGE binding to S100b): 1340 nM

Q: Which results are given for `CCCCc1nnc(OC2CCN(CC(C)(C)O)CC2)cc1-c1ccc(OC2CCCCC2)cc1` [Example 22, 1-{4-[6-Butyl-5-(4-cyclohexyloxy-phenyl)-pyridazin-3-yloxy]-piperidin-1-yl}-2-methyl-propan-2-ol dihydrochloride]?
A: IC50 [1]: 1120 nM; IC50 (sRAGE binding to S100b): 1380 nM

Q: `CCCCc1nnc(OC2CCN(CCOC)CC2)cc1-c1ccc(OC2CCCCC2)cc1` [Example 23, 3-Butyl-4-(4-cyclohexyloxy-phenyl)-6-[1-(2-methoxy-ethyl)-piperidin-4-yloxy]-pyridazine dihydrochloride] was tested. Which IC50 [1] did it give?
A: 1110 nM

Q: What about the IC50 (sRAGE binding to S100b) of the same compound?
A: 780 nM

Q: `CCCCc1nnc(OC2CN3CCC2CC3)cc1-c1ccc(OC2CCCCC2)cc1` (stereo not drawn) [Example 26, 3-[6-Butyl-5-(4-cyclohexyloxy-phenyl)-pyridazin-3-yloxy]-1-azabicyclo[2.2.2]octane dihydrochloride] was tested. Which IC50 [1] did it give?
A: 1900 nM

Q: What about the IC50 (sRAGE binding to S100b) of the same compound?
A: 2080 nM

Q: Which results are given for `CCCCc1nnc(O[C@H]2C[C@H]3CC[C@@H](C2)N3C)cc1-c1ccc(OC2CCCCC2)cc1` [Example 27, endo-3-[6-Butyl-5-(4-cyclohexyloxy-phenyl)-pyridazin-3-yloxy]-8-methyl-8-aza-bicyclo[3.2.1]octane dihydrochloride]?
A: IC50 [1]: 2520 nM; IC50 (sRAGE binding to S100b): 2690 nM

Q: Which results are given for `CCCCc1nnc(OC[C@@H]2CCCN3CCCC[C@H]23)cc1-c1ccc(OC2CCCCC2)cc1` [Example 28, (1R,9aR)-1-[6-Butyl-5-(4-cyclohexyloxy-phenyl)-pyridazin-3-yloxymethyl]-octahydroquinolizine dihydrochloride]?
A: IC50 [1]: 1660 nM; IC50 (sRAGE binding to S100b): 1750 nM

Q: Which results are given for `CCCCc1nnc(O[C@@H]2CCN(C)C2)cc1-c1ccc(OC2CCCCC2)cc1` [Example 29, 3-Butyl-4-(4-cyclohexyloxy-phenyl)-6-((R)-1-methyl-pyrrolidin-3-yloxy)-pyridazine dihydrochloride]?
A: IC50 [1]: 2360 nM; IC50 (sRAGE binding to S100b): 1720 nM

Q: What does the source list for `CCCCc1nnc(O[C@H]2CCN(C)C2)cc1-c1ccc(OC2CCCCC2)cc1` [Example 30, 3-Butyl-4-(4-cyclohexyloxy-phenyl)-6-((S)-1-methyl-pyrrolidin-3-yloxy)-pyridazine dihydrochloride]?
A: IC50 [1]: 2590 nM; IC50 (sRAGE binding to S100b): 1820 nM

Q: For `CCCCc1nnc(O[C@H]2CC3C[C@@H](O)C(C2)N3C)cc1-c1ccc(OC2CCCCC2)cc1` (stereo partly drawn) [Example 31, (3S,6R)-3-[6-Butyl-5-(4-cyclohexyloxy-phenyl)-pyridazin-3-yloxy]-8-methyl-8-aza-bicyclo[3.2.1]octan-6-ol dihydrochloride], which IC50 [1] is on record?
A: 1180 nM

Q: And the IC50 (sRAGE binding to S100b)?
A: 890 nM

Q: What does the source list for `CCCCc1nnc(OCC[C@H]2CCCCN2C)cc1-c1ccc(OC2CCCCC2)cc1` [Example 32, 3-Butyl-4-(4-cyclohexyloxy-phenyl)-6-[2-((R)-1-methyl-piperidin-2-yl)-ethoxy]-pyridazine dihydrochloride]?
A: IC50 [1]: 1780 nM; IC50 (sRAGE binding to S100b): 2780 nM

Q: How did the IC50 [1] turn out when `CCCCc1nnc(OCC[C@@H]2CCCCN2C)cc1-c1ccc(OC2CCCCC2)cc1` [Example 33, 3-butyl-4-(4-cyclohexyloxy-phenyl)-6-[2-((S)-1-methyl-piperidin-2-yl)-ethoxy]-pyridazine dihydrochloride] was run?
A: 1480 nM

Q: What about the IC50 (sRAGE binding to S100b) of the same compound?
A: 2630 nM

Q: For `CCCCc1nnc(OCC2CN(C)CCO2)cc1-c1ccc(OC2CCCCC2)cc1` (stereo not drawn) [Example 34, 2-[6-Butyl-5-(4-cyclohexyloxy-phenyl)-pyridazin-3-yloxymethyl]-4-methyl-morpholine dihydrochloride], which IC50 [1] is on record?
A: 2580 nM

Q: And the IC50 (sRAGE binding to S100b)?
A: 2930 nM

Q: For `CCCCc1nnc(O[C@H]2CC[C@H](NC)CC2)cc1-c1ccc(OC2CCCCC2)cc1` [Example 37, {4-[6-Butyl-5-(4-cyclohexyloxy-phenyl)-pyridazin-3-yloxy]-cyclohexyl}-methyl-amine dihydrochloride], which IC50 [1] is on record?
A: 1650 nM

Q: What about the IC50 (sRAGE binding to S100b) of the same compound?
A: 1870 nM

Q: How did the IC50 [1] turn out when `CCCCc1nnc(OC2CCN(C)CC2CO)cc1-c1ccc(OC2CCCCC2)cc1` (stereo not drawn) [Example 38, {4-[6-Butyl-5-(4-cyclohexyloxy-phenyl)-pyridazin-3-yloxy]-1-methyl-piperidin-3-yl}-methanol dihydrochloride] was run?
A: 2470 nM

Q: And the IC50 (sRAGE binding to S100b)?
A: 2620 nM

Q: What does the source list for `CCCCc1nnc(OCC2CN(C)CCC2(F)F)cc1-c1ccc(OC2CCCCC2)cc1` (stereo not drawn) [Example 39, 3-Butyl-4-(4-cyclohexyloxy-phenyl)-6-(4,4-difluoro-1-methyl-piperidin-3-ylmethoxy)-pyridazine dihydrochloride]?
A: IC50 [1]: 1500 nM; IC50 (sRAGE binding to S100b): 1220 nM

Q: How did the IC50 [1] turn out when `CCCCc1c(-c2ccc(OC3CCCCC3)cc2)cc(OC2CCN(C)CC2)n[n+]1[O-]` [Example 40, 3-Butyl-4-(4-cyclohexyloxy-phenyl)-6-(1-methyl-piperidin-4-yloxy)-pyridazine 2-oxide hydrochloride] was run?
A: 2180 nM

Q: And the IC50 (sRAGE binding to S100b)?
A: 2980 nM

Q: For `CCCCc1nnc(OCC2(F)CCN(C)CC2)cc1-c1ccc(OC2CCCCC2)cc1` [Example 45, 3-Butyl-4-(4-cyclohexyloxy-phenyl)-6-(4-fluoro-1-methyl-piperidin-4-ylmethoxy)-pyridazine dihydrochloride], which IC50 [1] is on record?
A: 500 nM

Q: And the IC50 (sRAGE binding to S100b)?
A: 1150 nM

From patent US9045461B2, “Phenyl-heteroaryl derivatives and methods of use thereof” (TransTech Pharma, LLC, priority 2010, dated 2015)
